{"source": "patent US9206194B2", "about": "“Halichondrin B analogs” (Eisai R&D Management Co., Ltd., priority 2008, dated 2015)", "key": {"[1]": {"system": "P-Glycoprotein-mediated MDR, Dx5-Rx1 versus MES-SA cells", "assay": "Susceptibility of compound to P-glycoprotein-mediated multidrug resistance (fold resistance)", "assay_type": "cell-based, human", "settings": "fold resistance: ratio of the IC50 values in resistant and parental cell lines", "description": "Susceptibility of Compound to P-Glycoprotein-Mediated Multidrug Resistance (MDR). A pair of human uterine sarcoma cell lines was used: MES-SA, the MDR negative parental cell line, and Dx5-Rx1, a cell line derived from MES-SA after long term of exposure to doxorubicin. This subline expresses P-Glycoprotein at high levels. Both cell lines were seeded at 7.5×10^3 cells/well in McCoy's 5A supplemented with 10% FBS and penicillin, streptomycin and L-glutamine and cell growth was measured as above. The ratio of the IC50 values obtained in the parental and resistant cell lines was termed fold resistance and provided an indication of compound susceptibility to P-glycoprotein-mediated MDR against the two cell lines were compared with each other."}, "[2]": {"system": "MES-SA uterine sarcoma cells", "assay": "Cell growth inhibition assay (methylene blue-based microculture), MES-SA", "design": "species or system human", "settings": "MDR negative parental cell line, 4 days incubation, compound in the crystalline form described", "description": "(§1) The anti-cancer activity of the compounds described above, in the crystalline forms described, was determined using cell growth inhibition assays as described in Liu, J. et al. Anticancer Research, 27:1509-1511 (2007). The activity data in terms of IC50 nM is described below in Table 9. MES-SA and MES-SA/Dx5-Rx1 uterine sarcoma, were obtained from the American Type Culture Collection and grown in the recommended conditions.\n(§2) Cell Growth Inhibition Assays. Cells were seeded at 7.5×10^3 cells/well in 96-well plates in the recommended medium supplemented with 10% FBS and penicillin, streptomycin and L-glutamine. […] The cell growth was determined using modifications (see Finlay G. J., et al. “A semiautomated microculture method for investigating growth inhibitory effects of cytotoxic compounds on exponentially growing carcinoma cells.” Anal Biochem 139: 272-277, 1984) of a methylene blue-based microculture assay (See Towle M. J., et al. “In vitro and in vivo anticancer activities of synthetic macrocyclic ketone analogues of halichondrin B.” Cancer Res 61: 1013-1021, 2001). […] The plates were read at A600-A405.\n(§3) Susceptibility of Compound to P-Glycoprotein-Mediated Multidrug Resistance (MDR). […] Both cell lines were seeded at 7.5×10^3 cells/well in McCoy's 5A supplemented with 10% FBS and penicillin, streptomycin and L-glutamine and cell growth was measured as above. […]"}, "[3]": {"system": "MES-SA/Dx5-Rx1 uterine sarcoma cells (expresses P-Glycoprotein at high levels)", "assay": "Cell growth inhibition assay (methylene blue-based microculture), Dx5-Rx1", "design": "species or system human", "settings": "Dx5-Rx1, doxorubicin-selected P-glycoprotein expressing subline; 4 days incubation; compound in the crystalline form described", "description": "as §1, §2, §3"}}, "data": [{"compound": "C=C1C[C@@H]2CC[C@@]34C[C@H]5O[C@H]6[C@@H](O3)[C@H]3O[C@H](CC[C@@H]3O[C@H]6[C@H]5O4)CC(=O)C[C@@H]3[C@@H](OC)[C@@H](C[C@H](O)CN)O[C@H]3C[C@H]3O[C@H](CC[C@@H]1O2)C[C@@H](C)C3=C", "note": "[ER-820057 (epi-C23 amine)]", "values": [{"measurement": "Ratio of DxR-Rx1/MES-SA", "setting": "[1]", "value": 303}, {"measurement": "IC50", "setting": "[2]", "value": 3.3, "unit": "nM"}, {"measurement": "IC50", "setting": "[3]", "value": 1000, "unit": "nM"}]}, {"compound": "C=C1C[C@@H]2CC[C@@]34C[C@H]5O[C@H]6[C@@H](O3)[C@H]3O[C@H](CC[C@@H]3O[C@H]6[C@H]5O4)CC(=O)C[C@@H]3[C@@H](OC)[C@@H](C[C@H](O)CO)O[C@H]3C[C@H]3O[C@@H](CC[C@@H]1O2)C[C@@H](C)C3=C", "note": "[ER-076349 monohydrate]", "values": [{"measurement": "Ratio of DxR-Rx1/MES-SA", "setting": "[1]", "value": 217}, {"measurement": "IC50", "setting": "[2]", "value": 0.03, "unit": "nM"}, {"measurement": "IC50", "setting": "[3]", "value": 6.5, "unit": "nM"}]}]}
